# Test results published in patent EP0125615B1, “Schwanniomyces castellii strains and brewing process” (LABATT BREWING COMPANY LIMITED, priority 1983, dated 1984).
# System: Schwanniomyces castellii strain ATCC 26077
# Experiment: Mutagenic treatment, mutants resistant to 2-deoxy-glucose on potato starch agar
# Type: cell-based, Schwanniomyces castelli
# Details: EMS treatment
# Description: The present invention also relates to the production of a novel strain of Schwanniomyces castellii. The mutant strain Schwanniomyces castellii NCYC 1461 was produced by treating a known strain, Schwanniomyces castellii ATCC 26077 with known mutagenic agents. The survivors were cultured on potato starch agar in the presence of concentrations of deoxyglucose at least as high as 10-^3 molar. […] Accordingly, the selection of the mutant strain is particularly desirable in the production of the above-mentioned culture filtrate having amylolytic enzyme activity. By means of such a selection there is a large proportionate increase in the relative amount of alpha-amylase present in the clarified culture filtrate. This novel strain of Schwanniomyces castellii is available upon request from the Yeast Collection of the National Collection of Yeast Cultures Depository ("NCYC"), Food Research Institute, Norwich, Norfolk, England. The ascession number of that organism in the above-mentioned repository is NCYC 1461. Schwanniomyces castellii strain NCYC 1461 is one of a number of mutant strains of Schwanniomyces castellii that .were produced by way of the above-outlined mutagenic treatment of Schwanniomyces castellii strain ATCC 26077. The particulars of the mutagenic treatments are detailed below in Table III which indicates the time of exposure, the percent survival rate, and the frequency of mutation for both of the treatments employed.
smiles,measurement,setting,value
CCOS(C)(=O)=O [EMS],% Survival,time of exposure 30 min,66%
same,Frequency of mutation,time of exposure 30 min,10^-3
same,% Survival,time of exposure 60 min,14%
same,Frequency of mutation,time of exposure 60 min,2×10^-4
